In test [1] the test system is human lung cancer cells (A549) subcutaneous xenograft. The experiment in a line: lung cancer subcutaneous xenograft animal model, intravenous injection. Format: in vivo, mice (BALB/c-nu/nu). The settings on record: intravenous 60 mg/kg once every other day, 20 days; for Weight of tumor (g) (mean ± SD): control 2.53 ± 0.17; for Volume of tumor (mm^3) (mean ± SD): control 3373.26 ± 581.44. Put shortly:
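Female BALB/c-nu/nu mice (4-6 weeks) inoculated subcutaneously with ~2×10^6 A549 cells; grouped once tumours exceeded 100 mm^3. Peptides given intravenously at 60 mg/kg for 20 days versus model control. Tumour weight and volume measured at dissection; body weight recorded every other day.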

Test [2] relates to human pancreatic cancer cells (PANC-1). The test can be described thus: transwell invasion assay, PANC-1 cells. Format: cell-based. The settings on record: PANC-1 transwell invasion, 10 μM, 24 hours; control group 727 ± 68. A digest of the protocol: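 Serum-free PANC-1 cells were seeded in matrigel-coated upper chambers with complete medium below. After 4-5 hours at 37° C., peptide was added at 10 μM final. Following 24 hours, invaded cells on the lower membrane surface were fixed, crystal violet-stained, imaged and counted against untreated controls.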

In test [3] the test system is human liver adenocarcinoma cells (SK-HEP-1). The experiment in a line: transwell invasion assay, SK-HEP-1 cells. It is filed as cell-based. The note with it: SK-HEP-1 transwell invasion, 10 μM, 24 hours; control group 767 ± 91. Put shortly:
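Serum-free SK-HEP-1 cells were seeded in matrigel-coated upper chambers over complete medium. After 4-5 h, peptide was added to the upper chamber at 10 μM final. Following 24 h at 37° C., invaded cells were fixed, crystal violet-stained, imaged and counted.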

Test [4] has as its system human liver cancer cells (HepG2). The experiment in a line: scratch assay, migration of HepG2 cells. It is filed as cell-based. The settings on record: HepG2, 10 μM, 48 hours; control group 71.01 ± 6.63. A digest of the protocol:
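HepG2 monolayers scratched, then cultured 48 h in 2% FBS medium with test polypeptides at 10 μM versus PBS control, triplicate wells. Migration rate (%) computed from original versus current scratch width in images.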

The test system of test [5] is human breast cancer cells (MDA-MB-453). The test can be described thus: scratch assay, migration of MDA-MB-453 cells. The note with it: MDA-MB-453, 10 μM, 48 hours; control group 32.42 ± 2.04. Format: cell-based. A digest of the protocol:
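Confluent MDA-MB-453 monolayers were scratched, then treated with peptide at 10 μM in 2% FBS medium for 48 h, with a PBS control and triplicate wells. Migration rate (%) was taken as (original − current scratch width)/original width ×100 from images.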

Test [6] relates to human breast cancer cells (MCF-7). The experiment in a line: scratch assay, migration of MCF-7 cells. The settings on record: MCF-7, 10 μM, 48 hours; control group 30.97 ± 1.79. Format: cell-based. A digest of the protocol:
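MCF-7 monolayers scratched, then cultured 48 hours in 2% FBS medium with test peptide at 10 μM versus PBS control, triplicate wells. Migration rate (%) = (original − current scratch width)/original width × 100, measured from images.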

Test [7] has as its system human melanoma cells (A375). The experiment in a line: scratch assay, migration of A375 cells. Format: cell-based. The settings on record: A375, 10 μM, 48 hours; control group 44.03 ± 6.21. Put shortly: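 Monolayers scratched, washed with PBS and cultured 48 hours in 2% FBS medium with polypeptides N1-N54 at 10 μM or PBS control, three wells per group. Migration rate (%) = (original − current scratch width)/original width×100, from imaged scratch widths.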

Test [8] deals with human oral epidermoid carcinoma KB cells. The experiment in a line: scratch assay, migration of KB cells. It is filed as cell-based. The settings on record: 10 μM, 48 hours, control group 54.03 ± 4.21. A digest of the protocol:
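Monolayers of KB cells were scratched, washed with PBS, then cultured 48 hours in 2% FBS medium containing test polypeptide (10 μM) or PBS control, in triplicate wells. From images, migration rate (%) = (original − current scratch width)/original width × 100.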

Ends that are not written are not given here. PEG = not defined here

For “N22: SEQ ID NO: 1 with substitution A7R, deletion of three amino acids at the amino terminal and of positions 15-18 (RFLRKENVTQD)”, in test [1], the “Weight of tumor (g) (mean ± SD)” value is recorded as 0.89 ± 0.19 g. In test [1], the “Volume of tumor (mm^3) (mean ± SD)” value was 1288.08 ± 577.81 mm^3. For the same substance, the “Number of cells (mean ± SD, P), invaded cells” value (“Number of cells (mean ± SD, P)” below) in test [2] was 220 ± 65,****; in test [3] it was 430 ± 51,**. Besides, the “Migration rate (%) (mean ± SD, P)” value in test [4] is listed as 18.61 ± 8.35,*** %; in test [5] it was 8.54 ± 1.57,** %; in test [6], 8.79 ± 3.01,** %; in test [7], 5.12 ± 3.69,*** %; in test [8], 10.02 ± 2.35,*** %.
Take “N23: SEQ ID NO: 1 with substitution A7R, deletion of position 11 and of positions 15-18 (YRVRFLRKENTQDAED)”: the “Weight of tumor (g) (mean ± SD)” value in test [1] was 0.65 ± 0.17 g. Further, the “Volume of tumor (mm^3) (mean ± SD)” value in test [1] is given as 993.11 ± 298.65 mm^3. Besides, the results for the “Number of cells (mean ± SD, P)” value in test [2] and in test [3] were 196 ± 26,**** and 456 ± 45,**, respectively. In addition, the “Migration rate (%) (mean ± SD, P)” value is 17.22 ± 7.12,*** % in test [4]; 18.2 ± 3.53,** % in test [5]; 10.20 ± 2.86,** % in test [6]; 11.13 ± 2.15,*** % in test [7]; 10.57 ± 1.7,*** % in test [8].
On to “N24: SEQ ID NO: 1 with substitution A7R, deletion of positions 1-2 and of position 18 (VRFLRKENVTQDAED)”, for which the “Weight of tumor (g) (mean ± SD)” value in test [1] was determined as 0.81 ± 0.25 g. For the same substance, the “Volume of tumor (mm^3) (mean ± SD)” value in test [1] turned out to be 1099.3 ± 512.53 mm^3. Also, the “Number of cells (mean ± SD, P)” value in test [2] is reported as 226 ± 18,****; in test [3] it was 332 ± 30,***. Besides, the “Migration rate (%) (mean ± SD, P)” value in test [4] was 16.38 ± 6.48,*** %; in test [5], 15.84 ± 4.44,* %; in test [6] it was 9.43 ± 1.12,** %; in test [7], 15.79 ± 4.16,** %; in test [8] it was 24.03 ± 4.21,* %.
“N25: SEQ ID NO: 1 with substitution N18R and addition of two amino acids at the carboxyl terminal (YRVRFLAKENVTQDAEDRCT)”: the “Weight of tumor (g) (mean ± SD)” value in test [1] worked out at 0.69 ± 0.21 g. In addition, in test [1], the “Volume of tumor (mm^3) (mean ± SD)” value came out at 1169.92 ± 572.47 mm^3. The “Number of cells (mean ± SD, P)” value is 247 ± 17,**** in test [2] and 411 ± 30,*** in test [3]. For the same substance, the “Migration rate (%) (mean ± SD, P)” value is 14.22 ± 7.10,*** % in test [4]; 21.05 ± 2.53,* % in test [5]; 9.16 ± 2.51,** % in test [6]; 17.67 ± 2.41,** % in test [7]; 18.32 ± 2.63,** % in test [8].
“N26: SEQ ID NO: 1 with substitution A15R, addition of one amino acid at the amino terminal and one at the carboxyl terminal (FYRVRFLAKENVTQDREDNC)”: in test [1], the “Weight of tumor (g) (mean ± SD)” value stood at 0.57 ± 0.22 g. Further, the “Volume of tumor (mm^3) (mean ± SD)” value in test [1] amounted to 1163.91 ± 457.09 mm^3. For the same substance, the “Number of cells (mean ± SD, P)” value is on record as 231 ± 18,**** in test [2] and 371 ± 27,*** in test [3]. Moreover, the “Migration rate (%) (mean ± SD, P)” value was 16.86 ± 7.90,*** % in test [4]; 6.19 ± 1.42,*** % in test [5]; 10.43 ± 3.34,** % in test [6]; 12.23 ± 2.48,*** % in test [7]; 23.71 ± 4.86,* % in test [8].
As for “N27: SEQ ID NO: 1 with addition of one amino acid at the carboxyl terminal and PEG modification at the carboxyl terminal (YRVRFLAKENVTQDAEDNC-{PEG}; reading uncertain)”, the “Weight of tumor (g) (mean ± SD)” value in test [1] amounted to 1.14 ± 0.23 g. The “Volume of tumor (mm^3) (mean ± SD)” value in test [1] came out at 1402.37 ± 405.66 mm^3. The “Number of cells (mean ± SD, P)” value is 242 ± 35,**** in test [2] and 369 ± 52,*** in test [3]. Besides, the “Migration rate (%) (mean ± SD, P)” value in test [4] is given as 39.99 ± 3.19,** %; in test [5], 21.24 ± 3.73,* %; in test [6], 8.40 ± 2.44,** %; in test [7] it was 12.52 ± 3.78,*** %; in test [8], 12.53 ± 3.88,** %.
For “N28: SEQ ID NO: 1 with deletion of positions 1-2 and 18 and PEG modification at the amino terminal ({PEG}-VRFLAKENVTQDAED; reading uncertain)”, the “Weight of tumor (g) (mean ± SD)” value in test [1] was 0.91 ± 0.21 g. Besides, the “Volume of tumor (mm^3) (mean ± SD)” value in test [1] is 1286.52 ± 344.21 mm^3. In addition, the “Number of cells (mean ± SD, P)” value is listed as 247 ± 15,**** in test [2] and 214 ± 31,**** in test [3]. The “Migration rate (%) (mean ± SD, P)” value in test [4] is given as 12.25 ± 8.40,*** %; in test [5], 11.32 ± 5.61,** %; in test [6], 14.83 ± 5.38,* %; in test [7], 10.80 ± 2.66,*** %; in test [8], 11.24 ± 3.52,*** %.
As for “N29: SEQ ID NO: 1 with deletion of positions 1-5 and 15-18 and PEG modification at the amino terminal ({PEG}-LAKENVTQD; reading uncertain)”, the “Weight of tumor (g) (mean ± SD)” value in test [1] stood at 1 ± 0.17 g. Besides, in test [1], the “Volume of tumor (mm^3) (mean ± SD)” value is listed as 1365.48 ± 435.32 mm^3. Moreover, the figures for the “Number of cells (mean ± SD, P)” value in test [2] and in test [3] were 213 ± 17,**** and 322 ± 56,***, respectively. In addition, the “Migration rate (%) (mean ± SD, P)” value in test [4] is given as 10.62 ± 8.97,*** %; in test [5], 13.73 ± 3.29,** %; in test [6], 19.15 ± 3.04,* %; in test [7] it was 14.01 ± 4.22,*** %; in test [8] it was 8.07 ± 1.79,*** %.
As for “N30: SEQ ID NO: 1 with deletion of positions 1-5 and 15-18 and PEG modification at the carboxyl terminal (LAKENVTQD-{PEG}; reading uncertain)”, the “Weight of tumor (g) (mean ± SD)” value in test [1] is 1.01 ± 0.34 g. Moreover, the “Volume of tumor (mm^3) (mean ± SD)” value in test [1] turned out to be 1187.13 ± 246.31 mm^3. The entries for the “Number of cells (mean ± SD, P)” value in test [2] and in test [3] were 237 ± 15,**** and 85 ± 20,****, respectively. Besides, the “Migration rate (%) (mean ± SD, P)” value in test [4] is 16.60 ± 7.85,*** %; in test [5], 15.77 ± 2.33,*** %; in test [6], 14.34 ± 4.06,* %; in test [7] it was 6.96 ± 2.18,*** %; in test [8], 8.75 ± 3.35,*** %.

The values are drawn from patent US20220280594A1, “APPLICATION OF POLYPEPTIDE OR DERIVATIVE THEREOF” (CHENGDU HUITAI BIOMEDICINE CO., LTD., priority 2019, published 2022).
